Reference: patent publication US4908380A, “Pharmaceutical compositions” (Imperial Chemical Industries plc, priority 1986, dated 1990)

Key:
thromboxane receptor = assay: Test (a): rabbit or rat aortal strip, TXA2 antagonism (agonist TXA2 or U46619); assay type: cell-based; settings: ±0.05
Source text: It is believed that TXA2 exerts its physiological action through the thromboxane receptor, at which receptor various other prostanoid contractile substances derived from arachidonic acid, such as prostaglandins H2, F2 alpha and prostaglandin D2, can exert contractile effects. There are two principal ways in which the effects of TXA2 (and also of prostaglandins H2, F2 alpha and/or D2) can be ameliorated. […] The second way is to administer a pharmacological agent which inhibits one or more of the enzymes involved in the production of TXA2 and in particular, which inhibits the enzyme known as thromboxane synthetase (TXA2 synthetase). Such an agent is said to be a TXA2 synthetase inhibitor.
As stated earlier, the novel compounds of formula I are antagonists of one or more of the actions of TXA2, for example certain of its actions on blood platelets, the vasculature and/or the lung.
(a) The rabbit aortal strip model devised by Piper and Vane (Nature, 1969, 223, 29-35) or the rat aortal strip model developed by Kennedy et alia (Prostaglandins, 1982, 24, 667-689), using as agonist a freshly prepared sample of TXA2, generated by addition of arachidonic acid (25 μg) to citrated, platelet rich rabbit plasma (250 μl) and allowing the mixture to aggregate fully over 90 seconds before use; alternatively the TXA2 mimetic agent known as U46619 (described by R. L. Jones et alia in "Chemistry, Biochemistry and Pharmacological Activity of Prostanoids" edited by S. M. Roberts and F. Scheinmann, at page 211; Pergamon Press, 1979) may be used as the agonist; and
Using the above test procedures (a)-(c), the following representative results have been obtained with the compounds of formula II wherein (i) X^1 is 2-chloro, (ii) X^1 is 2-cyano; or (iii) X^1 is 4-cyano, respectively: […]

[1] = test system: arachidonic acid induced aggregation of human platelets; assay: Arachidonic acid induced aggregation of human platelets in vitro; assay type: cell-based; settings: Platelet, read-out: % Inhibition of vehicle control
Source text: The beneficial effects of combining one of the novel TXA2 antagonists of formula I defined hereinabove with a TXA2 synthetase inhibitor may be illustrated in vitro, for example by evaluating their effects in inhibiting arachidonic acid induced aggregation of human platelets, using standard procedures well known in the art. Thus, for example, the following results were obtained with the TXA2 antagonist described hereinafter in Ex. 2, 6 and 20 (Compound A) and the TXA2 synthetase inhibitor known as dazoxiben (Compound B): […]

[2] = test system: U46619 induced hypertension; assay: Test (d): U46619 induced hypertension in anaesthetised male rats (Alderley Park strain); assay type: in vivo, rat; settings: 1 hour after oral dose of 0.5 mg/kg
Method: (d) Male rats (Alderley Park strain) are anaesthetised with sodium pentobarbital and blood pressure is monitored at the carotid artery. The TXA2 mimetic agent U46619 is administered intravenously at 5 μg/kg via the jugular vein to produce 20-30 mm/Hg (2640-3970 pascal) increase in systolic blood pressure. The process is repeated twice to ensure adequacy of response. A test compound is then administered either intravenously (via the jugular vein) or orally (via a cannula) directly into the stomach and the animal challenged with U46619, five minutes after dosing with test compound and then successively every ten minutes until the hypertensive effect of U46619 is no longer blocked.

[3] = test system: U46619 induced bronchoconstriction; assay: Test (c): U46619 induced bronchoconstriction in Konzett-Rossler anaesthetised guinea-pig; assay type: in vivo; settings: 2 hours after oral dosing at 0.05 mg/kg
Source text: (c) a bronchoconstriction test involving measuring the inhibition by a test compound of the bronchoconstriction induced in the Konzett-Rossler, anaesthetised guinea-pig model (as modified by Collier and James, Brit.J.Pharmacol., 1967, 30, 283-307) by intravenous administration of the TXA2 mimetic agent, U46619 and involving:
(i) obtaining a cumulative dose-response curve to U46619 induced bronchoconstriction by intravenous administration of constant volumes of increasing concentrations of U46619 (0.2-4 μg/kg) in physiological saline solution and expressing bronchoconstriction as the maximum of that theoretically obtainable with no air flow to the test animal;
(ii) generating a cumulative dose-response curve to U46619 induced bronchoconstriction at 30 minute intervals for 3 hours after oral dosing of test compound; and
(iii) calculating a dose-ratio for the test compound (that is the ratio of concentration of U46619 required to cause 50% bronchoconstriction in the presence and absence of test compound) indicating the potency of TXA2 antagonism.

diamondback moths = assay: Catches of diamondback moths (lures)

Compound: O=C(O)CCC/C=C\C[C@@H]1CO[C@H](c2ccccc2Cl)O[C@@H]1c1ccccc1 (relative stereo) [(iv), 5(Z)-7-([2,4,5-cis]-2-o-chlorophenyl-4-phenyl-1,3-dioxan-5-yl)heptenoic acid, reference compound]
- pA2 (thromboxane receptor): 6.22

Compound: O=C(O)c1ccc(OCCn2ccnc2)cc1 [B]
- inhibition at 100 µM ([1]; B at 10^-4 M): 32.2 ± 16.3%
- inhibition at 10 µM ([1]; B at 10^-5 M): 4.5 ± 1.8%

Compound: N#Cc1ccc([C@H]2OC[C@@H](C/C=C\CCCC(=O)O)[C@@H](c3ccccc3)O2)cc1 (relative stereo) [(v), reference compound]
- pA2 (thromboxane receptor): 5.65

Compound: N#Cc1ccccc1[C@H]1OC[C@@H](C/C=C\CCC(=O)O)[C@@H](c2ccccc2O)O1 (relative stereo) [(ii), 4(Z)-6-([2,4,5-cis]-2-o-cyanophenyl-4-o-hydroxyphenyl-1,3-dioxan-5-yl)hexenoic acid]
- pA2 (thromboxane receptor): 8.09
- inhibition of U46619 induced hypertension [2]: > 80%
- dose ratio [3]: > 32

Compound: O=C(O)CC/C=C\C[C@@H]1CO[C@H](c2ccccc2Cl)O[C@@H]1c1ccccc1O (relative stereo) [(i), 4(Z)-6-([2,4,5-cis]-2-o-chlorophenyl-4-o-hydroxyphenyl-1,3-dioxan-5-yl)hexenoic acid]
- inhibition at 0.001 µM ([1]; A at 10^-9 M): 2.2 ± 0.8%
- pA2 (thromboxane receptor): 8.02
- inhibition of U46619 induced hypertension [2]: > 80%

Compound: N#Cc1ccc([C@H]2OC[C@@H](C/C=C\CCC(=O)O)[C@@H](c3ccccc3O)O2)cc1 (relative stereo) [(iii)]
- pA2 (thromboxane receptor): 7.45
- inhibition of U46619 induced hypertension [2]: > 40%
- dose ratio [3]: > 350

Compound: CCCC/C=C\CCCCCCCCCCOC(C)=O [HLA, ( --Z)-11-hexadecenyl acetate]
- Weekly catch week 1 (diamondback moths; week 1): 0
- Weekly catch week 2 (diamondback moths; week 2): 1
- Weekly catch week 3 (diamondback moths; week 3): 5
- Weekly catch week 4 (diamondback moths; week 4): 3
